Columns and labels:
[1] = tested on: matrix metalloproteinase-13 (MMP-13); assay: TNF-α-induced MMP-13 mRNA expression by Q-PCR; type: cell-based; settings: porcine chondrocytes, HS—Cf 2 hours, then TNF-α (5 ng/ml) four hours
Procedure: (§1) The following embodiments show suppression effect of HS—Cf on those factors involved in signaling pathways of TNF-α-induced IRF-1 expression and prevention effect of HS—Cf on TNF-mediated collagen loss and proteoglycan loss. All porcine chondrocytes used are obtained from the hind leg joints of pigs.
(§2) Mix HS—Cf in different concentrations with porcine chondrocytes and react for 2 hours. Then add TNF-α (5 ng/ml) to stimulate cells for four hours. Next observe mRNA expression by real-time quantitative-polymerase chain reaction (Q-PCR).

[2] = tested on: inducible nitric oxide synthase (iNOS); assay: TNF-α-induced iNOS expression in chondrocytes; type: cell-based, porcine; settings: chondrocytes stimulated by TNF-α (5 ng/ml), after 48 hours, HS—Cf in different concentrations
Excerpt: as §1
(§3) NO (nitric oxide) is generated by TNF-α-induced iNOS so that iNOS expression is correlated with NO production. HS—Cf in different concentrations are delivered to chondrocytes stimulated by TNF-α (5 ng/ml).

porcine chondrocytes [3] = assay: MTT cell viability assay; type: cell-based; settings: any of the concentrations
Excerpt: (§4) Cytotoxicity of HS—Cf also has been checked. HS—Cf is used as a pharmaceutical composition so that cytotoxicity of HS—Cf has to be carefully considered for determining whether HS—Cf can be used for treatment of osteoarthritis. […] Thus HS—Cf is used in treatment of organisms.

collagen II = assay: Loss prevention of collagen II under TNF-α stimulation, Western blot; type: cell-based; settings: porcine chondrocytes, HS—Cf 24 hours, then TNF-α (5 ng/ml) 48 hours
Procedure: as §1
As shown in the figure, after mixing porcine chondrocytes with TNF-α (5 ng/ml), the amount of collagen II at different times is determined by Western Blot. It is confirmed that collagen II is degraded and lost along with the time under TNF-α stimulation. […] Then add TNF-α (5 ng/ml) to stimulate porcine chondrocytes for 48 hours. Next use western blot to measure the amount of protein.

[4] = tested on: matrix metalloproteinase-3 (MMP-3); assay: TNF-α-induced MMP-3 mRNA expression by Q-PCR; type: cell-based; settings: porcine chondrocytes, HS—Cf 2 hours, then TNF-α (5 ng/ml) four hours
Procedure: as §1
as §2, with “TNF-α-induced MMP-3 is one of the factors that damage and destroy cartilage. Mix” for “Mix”, “porcine chondrocytes” for “cells”, “measure” for “observe”

NO (nitric oxide) = assay: NO production in TNF-α-stimulated chondrocytes; type: cell-based, porcine; settings: chondrocytes stimulated by TNF-α (5 ng/ml), after 48 hours, HS—Cf in different concentrations
Excerpt: as §1, §3

[5] = tested on: ADAMTS-5, also called Aggrecanase-2; assay: TNF-α-induced ADAMTS-5 mRNA expression by Q-PCR; type: cell-based; settings: porcine chondrocytes, HS—Cf 2 hours, then TNF-α (5 ng/ml) four hours
Procedure: as §1
TNF-α induced ADAMTS-5 is one of the factors that damage and destroy cartilage. Mix HS—Cf in different concentrations with porcine chondrocytes and react for 2 hours. Then add TNF-α (5 ng/ml) to stimulate cells for four hours. Next observe mRNA expression by Q-PCR.

porcine chondrocytes [6] = assay: lactate dehydrogenase (LDH) assay; type: cell-based; settings: any of the concentrations
Excerpt: as §4

[7] = tested on: ADAMTS-4, also called Aggrecanase-1; assay: TNF-α-induced ADAMTS-4 mRNA expression by Q-PCR; type: cell-based; settings: porcine chondrocytes, HS—Cf 2 hours, then TNF-α (5 ng/ml) four hours
Procedure: as §1
(§5) TNF-α induced ADAMTS-4 is one of the factors that damage and destroy cartilage. Mix HS—Cf in different concentrations with porcine chondrocytes and react for 2 hours. Then add TNF-α (5 ng/ml) to stimulate cells for four hours. Next measure mRNA expression by Q-PCR.

[8] = tested on: matrix metalloproteinase-1 (MMP-1); assay: TNF-α-induced MMP-1 mRNA expression by Q-PCR; type: cell-based; settings: porcine chondrocytes, HS—Cf 2 hours, then TNF-α (5 ng/ml) four hours
Procedure: as §1
as §5, with “TNF-α-induced MMP-1” for “TNF-α induced ADAMTS-4”, “porcine chondrocytes” for “cells”, “real-time quantitative-polymerase chain reaction (Q-PCR).” for “Q-PCR.”

proteoglycan (aggrecan) = assay: Loss prevention of proteoglycan under TNF-α stimulation, Safranin-O staining; type: cell-based; settings: porcine chondrocytes, 5/or 10 μM HS—Cf 24 hours, then TNF-α (5 ng/ml) 72 hours
Procedure: as §1
Besides collagen II, loss of proteoglycan (aggrecan) is also affected by HS—Cf. […] Then add TNF-α (5 ng/ml) to stimulate porcine chondrocytes for 72 hours. Next use Safranin-O staining to observe the amount of proteoglycan in cartilaginous tissue.

SMILES: O=C(Nc1cccc(C(F)(F)F)c1)c1ccccc1O [HS—Cf, 2-hydroxy-N-[3-(trifluoromethyl)phenyl]benzamide]
- MMP-13 mRNA expression [1]: MMP-13 expression is decreased along with the increasing concentration
- iNOS expression [2]: significantly decreases iNOS expression at higher concentration
- cytotoxicity (MTT cell viability assay) (porcine chondrocytes [3]): no obvious cytotoxic effect
- degradation and loss of collagen II (collagen II): degradation and loss of collagen II is under control
- MMP-3 mRNA expression [4]: decreases MMP-3 expression at higher concentration
- NO production (NO (nitric oxide)): NO production is also reduced along with the increasing concentration
- ADAMTS-5 mRNA expression [5]: ADAMTS-5 expression is decreased along with the increasing concentration
- cytotoxicity (LDH assay) (porcine chondrocytes [6]): no obvious cytotoxic effect
- ADAMTS-4 mRNA expression [7]: ADAMTS-4 expression is decreased along with the increasing concentration
- MMP-1 mRNA expression [8]: MMP-1 expression is decreased along with the increasing concentration
- degradation and loss of proteoglycan (proteoglycan (aggrecan)): degradation and loss of proteoglycan is under control
